In US20240024273A1, “TOPICAL ADMINISTRATION OF 2-(DIETHYLAMINO)ETHYL 2-(4-ISOBUTYLPHENYL)PROPRIONATE FOR TREATMENT OF DISEASES” (TECHFIELDS PHARMA CO., LTD., priority 2020, published 2024):
Values joined by “and” are separate entries in the source; they are usually repeats but may differ in a detail not shown here. Equal entries are not always repeated.

Assays:
[1] = Battery of nonclinical pharmacology and toxicology studies (overall); conditions: in vivo
Text: A battery of pharmacology and toxicology studies including a GLP acute dermal maximum tolerated dose study in rats, a GLP acute dermal maximum tolerated dose study in Beagle dogs, a non-GLP 14-day repeated dermal dose toxicity study in rats, a non-GLP 14-day repeated dermal dose toxicity study in Beagle dogs, a 28-day GLP repeated dermal dose toxicity and toxicokinetics study in rats with 14-day recovery, a 28-day GLP repeated dermal dose toxicity and toxicokinetics study in Beagle dogs with 14-day recovery, a GLP bacterial reverse mutation assay (Ames), a GLP in vitro chromosome aberration assay in CHO-WBL Cells, a GLP in vivo bone marrow micronucleus assay in rats, a behavioral effects in rats using the functional observational battery, a rat respiratory safety pharmacology study, a cardiovascular telemetry study in the unrestrained conscious non-naïve dog, a skin irritation study in rabbits, a study on embryo-fetal development in rats, a 39-week GLP repeated dermal dose toxicity and toxicokinetics study in mini pigs with 4-week recovery, a 26-week GLP repeated dermal dose toxicity and toxicokinetics study in rats with 4-week recovery, a study on fertility and early embryonic development to implantation in rats, a study on embryo-fetal development in rabbits, and a sensitization test in guinea pigs were conducted.

[2] = Acute maximum tolerated dose study, subcutaneous injection; design: species or system Beagle dogs; conditions: beagle, dog, in vivo, sc
[3] = Second Phase 2 study: plasma ibuprofen pharmacokinetics; assay type: in vivo, human; conditions: low dose levels (below 35 mg/day)
Procedure: All subjects enrolled at designated sites that have the capability to keep subjects overnight will be included in the PK subgroup until PK samples for 40 subjects per treatment group have been collected. […] At the Week 12/EOS visit, PK blood samples can be collected predose and at 2, 4, and 6 hours postdose. Subjects will only receive the morning dose at the Week 12/EOS visit.
Thus only ibuprofen was analyzed in this trial.

[4] = test system: healthy male and female volunteers; assay: Phase 1 clinical study: skin irritation assessment (dermal response score 0-7); assay type: in vivo, human; conditions: all dose groups
Procedure: Skin irritation due to study drug application was measured by a dermal response score of 0-7 assigned for each study drug application site prior to and 30 min following each dose administration. A score of 6 or 7 was considered a severe reaction. Pre-dose assessments during the multiple dosing served as the 12 hour post-dose assessment of the prior dose.

[5] = test system: healthy male and female volunteers; assay: Phase 1 clinical study: safety (adverse events, laboratory, vital signs, ECG); assay type: in vivo, human; conditions: for Subjects with at least one TEAE: N = 8
Text: Safety assessments included monitoring of adverse events (AEs), vital signs (blood pressure, pulse rate, respiratory rate and oral temperature), clinical laboratory findings, resting 12-lead electrocardiogram (ECG) results, skin irritation assessments and physical examination findings.
Safety endpoints consist of all AEs, clinical laboratory test results, ECG, physical examination and vital sign assessments and skin irritation assessments.
Safety summaries are provided for all subjects in the safety population. Data from subjects in each cohort who received placebo treatment were pooled. AE data, clinical laboratory test results, ECG, skin irritation and vital signs data are presented descriptively using summary tables and listings. Change from baseline in vital signs, ECG and clinical laboratory results are presented descriptively using summary tables and listings. Physical examination findings are listed by subject.
Samples for clinical laboratory safety tests (chemistry, hematology, urinalysis) were obtained at the screening visit, Day −1, Day 4, Day 13 and prior to discharge from the study on Day 17 or at early termination. Any clinical laboratory findings considered to be clinically significant were recorded as AEs.
Systolic and diastolic blood pressure (mmHg) and pulse rate (beats per minute), respiratory rate (breaths per minute) and oral temperature (° C.) were measured after at least 5 minutes at rest in the seated position at the screening visit, at admission on Day −1, Day 5 and Day 13, and prior to and 1 hour following each dose administration.
A physical examination was performed at the screening visit and on Day 13, or at early termination, and included assessment of the following body systems: general appearance, dermatological, head, eyes, ears, nose and throat, neck, lymph nodes, lungs, heart, abdomen, neurological and musculoskeletal.
A resting 12-lead ECG was recorded after at least 5 minutes of rest at the screening visit and on Day 13, or at early termination. The ECG parameters recorded include ventricular rate (bpm), PR interval (msec), QRS duration (msec), QT interval (msec), and QTc interval (msec). QTc interval was calculated at the clinic using a formula internal to the ECG equipment (Mortara).

[6] = N = 8 each, dose by column: c1 17.5, c2 35, c3 70, c4 140, c5 280 mg topical, c6 70 mg spray

CCN(CC)CCOC(=O)C(C)c1ccc(CC(C)C)cc1 (stereo not drawn) [2-(diethylamino)ethyl 2-(4-isobutylphenyl)propionate]
overall safety [1]: appeared to be safe and were generally well tolerated
MTD [2]: 500 mg/kg
detectability of prodrug in plasma [3]: cannot be detected in most of subjects' plasma
maximum skin irritation score (0-7) [4]: ≤ 3
Subjects with at least one TEAE ([5]; 17.5 mg topical): 1 (12.5%) n (%) and 1 (12.5) n (%)
Headache, subjects ([5]; 35 mg topical): 2 (25.0%)
Subjects with at least one TEAE ([5]; 35 mg topical): 3 (37.5%) n (%) and 3 (37.5) n (%)
Subjects with at least one TEAE ([5]; 70 mg spray): 2 (25.0%) n (%) and 2 (25.0) n (%)
Subjects with at least one TEAE ([5]; 70 mg topical): 1 (12.5%) n (%) and 1 (12.5) n (%)
Headache, subjects ([5]; 140 mg topical): 1 (12.5%)
Subjects with at least one TEAE ([5]; 140 mg topical): 1 (12.5%) n (%) and 1 (12.5) n (%)
Subjects with at least one TEAE ([5]; 280 mg topical): 1 (12.5%) n (%) and 1 (12.5) n (%)
safety and tolerability ([5]; 17.5-280 mg topical and 70 mg spray, single and multiple doses): safe and well-tolerated
Subjects who discontinued due to an AE [5, 6]: 0
Subjects with SAEs [5, 6]: 0
TEAE: Dizziness [5, 6]: 0 n (%)
TEAE: Vomiting [5, 6]: 0 n (%)
intensity of AEs ([5]; all dose groups): mild or moderate in intensity
aspartate aminotransferase (ast) increased, subjects ([5]; each of 70 mg topical and 70 mg spray): 1 (12.5%)
alanine aminotransferase (ALT) increased, subjects ([5]; each of 70 mg, 280 mg topical and 70 mg spray): 1 (12.5%)
ECG parameters ([5]; human, in vivo): no clinically significant ECG parameter values
deaths ([5]; human, in vivo): No subjects died
laboratory findings vs dose ([5]; human, in vivo): no apparent trends or dose relationship
vital signs ([5]; human, in vivo): no clinically significant vital sign values
